Assays:
[1] = biological target: tyrosine kinases (PTK) in colon carcinoma PDX lysates; assay: PamChip tyrosine kinase (PTK) activity profiling of colon carcinoma PDX tumor lysates; design: species or system human PDX grown in mice; Kinase score: scale not given here; settings: for Kinase statistic: value<0 = higher activity in vehicle-treated tumors; for Kinase score: vehicle-treated vs KcAng(1-7)-treated tumors
Experimental: In particular, to determine the effect of treatment on kinase activities, Tyrosine (PTK) and Serine/Threonine (STK) PamChip®-based kinase activity profiling in lysates from colon carcinoma PDX was performed by PamGene International B.V., The Netherlands.
PamGene® kinase activity profiles were measured for vehicle-treated colon cancer PDX tumors (control, n=10) and KcAng(1-7)-treated colon cancer PDX tumors (treatment, n=10).
Frozen tissues of tumor samples were processed to make lysates followed by determination of tyrosine kinase and serine/threonine kinase activity profiles. Datasets were analyzed by PamGene bioinformatics toolbox, for example by using PamGene's method called Upstream Kinase Analysis.
Kinase Score was used for ranking kinases based on their significance and specificity in terms of the set of peptides used for the corresponding kinase. Kinase statistics indicates the overall change of the peptide set that represents the kinase. Kinase statistics value<0 indicates higher activity in vehicle-treated tumors.

[2] = system: lung carcinoma PDX Lu7433; assay: KcAng(1-7) on growth of lung carcinoma PDX Lu7433 in mice; assay type: in vivo, NMRI nu/nu mice (human PDX)
Experimental: In vivo studies were conducted at EPO GmbH Berlin. Large studies (FIG. 1A, 2, 3, 4, 5) comprised 3 groups of 10 mice/group and 5 animals as reserve, as outlined in Table 1. Smaller studies (FIG. 1B, 1C, 1D) comprised 2 groups of mice of 3 mice per group. The animals were allocated to the various treatment groups (e.g. 0.2 μg/kg and 30 μg/kg) with a maximum of 10 animals per group. […] The groups received subcutaneous (s.c.) drug injection (for max. 28 days) as outlined in the Table 1.
NMRI nu/nu mice were used in this study. The animals were female at age of 6 to 8 weeks. The respective PDX tumors were inoculated subcutaneously (s.c.), and the tumors were grown to achieve palpable tumor sizes before start of the respective treatments. The PDX included breast (MaCa4151), colon (Co9689A), head & neck (HN10309), lung (Lu7433) and ovarian (OvCa13329) cancer (Table 2).
Treatment with KcAng(1-7) was started with palpable tumors after the randomization of animals regarding tumor volume. KcAng(1-7) was applied s.c. by daily injections at […] or 30 μg/kg dose for a maximum of 28 days (or earlier as defined by the humane end point for the study).
KcAng(1-7) was prepared as follows: The compounds was suspended in sterile PBS resulting in a clear solution. The remains of this formulation were stored at 4° C.
Tumor growth stimulatory or inhibitory activity of the KcAng(1-7) was evaluated by determination of tumor volumes (TV). During the study, tumor volumes and body weight were measured twice a week, and the ratio of the mean tumor volumes between the compound-treated group and the vehicle-treated group (T/C) was calculated.
Tumor volume=(tumor width)×(tumor width)×(tumor length)+2
T/C=T÷C • T: Mean estimated tumor volume of the compound-treated group • C: Mean estimated tumor volume of the vehicle-treated group

[3] = Gr. B 0.2 μg/kg/d s.c., Day 11 (Meas. 1)
[4] = Gr. B 0.2 μg/kg/d s.c., Day 14 (Meas. 2)
[5] = Gr. B 0.2 μg/kg/d s.c., Day 18 (Meas. 3)
[6] = Gr. B 0.2 μg/kg/d s.c., Day 21 (Meas. 4)
[7] = Gr. B 0.2 μg/kg/d s.c., Day 25 (Meas. 5)
[8] = Gr. B 0.2 μg/kg/d s.c., Day 28 (Meas. 6)
[9] = Gr. C 30 μg/kg/d s.c., Day 11 (Meas. 1)
[10] = Gr. C 30 μg/kg/d s.c., Day 14 (Meas. 2)
[11] = Gr. C 30 μg/kg/d s.c., Day 18 (Meas. 3)
[12] = Gr. C 30 μg/kg/d s.c., Day 21 (Meas. 4)
[13] = Gr. C 30 μg/kg/d s.c., Day 25 (Meas. 5)
[14] = Gr. C 30 μg/kg/d s.c., Day 28 (Meas. 6)

Lys-Asp-Arg-Val-Abu/Ala-Ile-His-Abu/Ala (KDRVAIHA; not fully specified; cyclic thioether (Abu/Ala bridge); VARIANT (5)..(5) /replace=“Abu”; VARIANT (8)..(8) /replace=“Abu”; SITE (1)..(8) /note=“Variant residues given in the sequence have no preference with respect to those in the annotations for variant positions”) [KcAng(1-7)]
Kinase statistic ([1]; kinase CCK4/PTK7): −0.58 | Kinase score ([1]; kinase CCK4/PTK7): 2.23 | Kinase statistic ([1]; kinase EPHA1): −0.52 | Kinase score ([1]; kinase EPHA1): 2.01 | Kinase statistic ([1]; kinase EPHA2): −0.50 | Kinase score ([1]; kinase EPHA2): 1.96 | Kinase statistic ([1]; kinase EPHA3): −0.55 | Kinase score ([1]; kinase EPHA3): 2.38 | Kinase statistic ([1]; kinase EPHA4): −0.52 | Kinase score ([1]; kinase EPHA4): 2.55 | Kinase statistic ([1]; kinase EPHA8): −0.51 | Kinase score ([1]; kinase EPHA8): 1.71 | Kinase statistic ([1]; kinase FER): −0.51 | Kinase score ([1]; kinase FER): 2.49 | Kinase statistic ([1]; kinase FES): −0.47 | Kinase score ([1]; kinase FES): 1.84 | Kinase statistic ([1]; kinase FGFR1): −0.49 | Kinase score ([1]; kinase FGFR1): 2.39 | Kinase statistic ([1]; kinase FGFR2): −0.47 | Kinase score ([1]; kinase FGFR2): 1.82 | Kinase statistic ([1]; kinase FGFR3): −0.48 | Kinase score ([1]; kinase FGFR3): 1.89 | Kinase statistic ([1]; kinase HER2): −0.47 | Kinase score ([1]; kinase HER2): 2.68 | Kinase statistic ([1]; kinase HER4): −0.47 | Kinase score ([1]; kinase HER4): 2.11 | Kinase statistic ([1]; kinase JAK1~B): −0.49 | Kinase score ([1]; kinase JAK1~B): 1.70 | Kinase statistic ([1]; kinase LMR1): −0.71 | Kinase score ([1]; kinase LMR1): 4.10 | Kinase statistic ([1]; kinase MER): −0.44 | Kinase score ([1]; kinase MER): 1.74 | Kinase statistic ([1]; kinase MET): −0.46 | Kinase score ([1]; kinase MET): 2.16 | Kinase statistic ([1]; kinase TEC): −0.44 | Kinase score ([1]; kinase TEC): 1.79 | Kinase statistic ([1]; kinase TXK): −0.46 | Kinase score ([1]; kinase TXK): 2.05 | Kinase statistic ([1]; kinase TYRO3/SKY): −0.45 | Kinase score ([1]; kinase TYRO3/SKY): 2.03 | optT/C ([2]; 0.2 μg/kg): 68.2% | optT/C ([2]; 30 μg/kg): 71.9% | effect on tumor growth ([2]; 0.2 and 30 μg/kg, 19 days): moderate but significant decrease in tumor growth | RTV Mean [2, 3]: 1 | RTV Median [2, 3]: 1 | T/C [2, 3]: 100.1% | Tumor Vol. Mean [2, 3]: 0.112 cm^3 | Tumor Vol. Median [2, 3]: 0.109 cm^3 | RTV Mean [2, 4]: 1.7 | RTV Median [2, 4]: 1.8 | T/C [2, 4]: 88.4% | Tumor Vol. Mean [2, 4]: 0.187 cm^3 | Tumor Vol. Median [2, 4]: 0.19 cm^3 | RTV Mean [2, 5]: 3.3 | RTV Median [2, 5]: 3.4 | T/C [2, 5]: 75.1% | Tumor Vol. Mean [2, 5]: 0.373 cm^3 | Tumor Vol. Median [2, 5]: 0.412 cm^3 | RTV Mean [2, 6]: 4.2 | RTV Median [2, 6]: 4.3 | T/C [2, 6]: 75.3% | Tumor Vol. Mean [2, 6]: 0.473 cm^3 | Tumor Vol. Median [2, 6]: 0.454 cm^3 | RTV Mean [2, 7]: 5.7 | RTV Median [2, 7]: 5.6 | T/C [2, 7]: 71% | Tumor Vol. Mean [2, 7]: 0.643 cm^3 | Tumor Vol. Median [2, 7]: 0.625 cm^3 | RTV Mean [2, 8]: 7.6 | RTV Median [2, 8]: 8.1 | T/C [2, 8]: 68.2% | Tumor Vol. Mean [2, 8]: 0.844 cm^3 | Tumor Vol. Median [2, 8]: 0.808 cm^3 | RTV Mean [2, 9]: 1 | RTV Median [2, 9]: 1 | T/C [2, 9]: 99.7% | Tumor Vol. Mean [2, 9]: 0.112 cm^3 | Tumor Vol. Median [2, 9]: 0.099 cm^3 | RTV Mean [2, 10]: 1.6 | RTV Median [2, 10]: 1.6 | T/C [2, 10]: 85.1% | Tumor Vol. Mean [2, 10]: 0.18 cm^3 | Tumor Vol. Median [2, 10]: 0.168 cm^3 | RTV Mean [2, 11]: 3.2 | RTV Median [2, 11]: 3.1 | T/C [2, 11]: 71.9% | Tumor Vol. Mean [2, 11]: 0.357 cm^3 | Tumor Vol. Median [2, 11]: 0.376 cm^3 | RTV Mean [2, 12]: 4.3 | RTV Median [2, 12]: 4.1 | T/C [2, 12]: 75.1% | Tumor Vol. Mean [2, 12]: 0.472 cm^3 | Tumor Vol. Median [2, 12]: 0.509 cm^3 | RTV Mean [2, 13]: 6.1 | RTV Median [2, 13]: 5.9 | T/C [2, 13]: 75.3% | Tumor Vol. Mean [2, 13]: 0.682 cm^3 | Tumor Vol. Median [2, 13]: 0.719 cm^3 | RTV Mean [2, 14]: 8.2 | RTV Median [2, 14]: 8.2 | T/C [2, 14]: 73.7% | Tumor Vol. Mean [2, 14]: 0.912 cm^3 | Tumor Vol. Median [2, 14]: 0.991 cm^3

Source: patent US20220257698A1, “ANGIOTENSIN TYPE 2 (AT2) RECEPTOR AGONISTS FOR USE IN THE TREATMENT OF CANCER” (LANTHIOPEP B.V., priority 2019, published 2022)
